Measured values taken from article PMC9030622, “Investigation of an Allosteric Deoxyhypusine Synthase Inhibitor in P. falciparum” (Molecules, 2022).

Tests used:
[1] = biological target: T1, P. falciparum deoxyhypusine synthase (DHS) (Plasmodium falciparum, UniProt Q9GSW0); assay: deoxyhypusine formation assay with purified recombinant PfDHS, GC/MS readout; partial (max […]) inhibition; format: biochemical
T1 construct: recombinant, truncated P. falciparum DHS, N-terminally histidine-tagged
T1 sequence (Q9GSW0 1-496): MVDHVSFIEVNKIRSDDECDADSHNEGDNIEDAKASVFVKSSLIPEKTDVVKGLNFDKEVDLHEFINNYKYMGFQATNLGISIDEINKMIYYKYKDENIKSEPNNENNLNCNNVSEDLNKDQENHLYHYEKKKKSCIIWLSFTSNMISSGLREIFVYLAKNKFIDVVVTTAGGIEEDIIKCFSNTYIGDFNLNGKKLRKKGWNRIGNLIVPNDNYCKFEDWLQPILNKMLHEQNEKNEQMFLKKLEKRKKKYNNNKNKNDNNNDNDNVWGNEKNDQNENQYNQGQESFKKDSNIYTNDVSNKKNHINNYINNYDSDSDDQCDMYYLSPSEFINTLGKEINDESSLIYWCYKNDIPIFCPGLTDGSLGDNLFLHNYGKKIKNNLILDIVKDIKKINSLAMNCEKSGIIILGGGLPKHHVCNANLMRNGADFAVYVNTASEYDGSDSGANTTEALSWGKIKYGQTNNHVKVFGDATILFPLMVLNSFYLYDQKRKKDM

[2] = biological target: T1, P. falciparum deoxyhypusine synthase (DHS); assay: deoxyhypusine formation assay with purified recombinant PfDHS, GC/MS readout; format: biochemical

O=C(Nc1cccc2[nH]ccc12)c1cc2ccc(Br)cc2s1 [6-bromo-N-(1H-indol-4yl)-1-benzothiophene-2-carboxamide]
IC50 [1]: 340 nM

O=C(O)c1cc(O)c2cccc(O)c2n1 [C, 4,8-Dihydroxyquinoline-2-carboxylic acid]
IC50 [2]: 112 nM
